Experimental data taken from patent publication US11180462B2, “Microbiocidal oxadiazole derivatives” (SYNGENTA PARTICIPATIONS AG, priority 2015, dated 2021).

Columns and labels:
[1] = tested on: Glomerella lagenarium (Colletotrichum lagenarium); assay: Fungicidal activity against Glomerella lagenarium (Colletotrichum lagenarium) liquid culture / cucumber / preventative (anthracnose); type: cell-based; conditions: Colletotrichum orbiculare; 20 ppm in the applied formulation; liquid culture (PDB), growth inhibition measured photometrically after 3 to 4 days; compared to untreated control; read-out: disease control
Summary of the method: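 Percent activity against the untreated check was derived from photometric growth measurements made 2 to 7 days after conidia in potato dextrose broth were combined with compound at 20 ppm. Cultures were kept dark at 24 °C and 96% humidity.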

[2] = tested on: Puccinia recondita f. Sp. Tritici; assay: Fungicidal activity against Puccinia recondita f. sp. tritici / wheat / leaf disc preventative (brown rust); type: in vivo; conditions: foliar, 200 ppm in the applied formulation, wheat leaf segments, preventative, compared to untreated control leaf disks, read-out: disease control
Summary of the method: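 200 ppm spray on wheat cv. Kanzler leaf segments; spore inoculation +1 day; 19° C., 75% rh, 12 h/12 h light cycle; single rating of % control vs untreated at 7 to 9 days.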

[3] = tested on: Puccinia recondita f. Sp. Tritici; assay: Fungicidal activity against Puccinia recondita f. sp. tritici / wheat / leaf disc curative (brown rust); type: in vivo; conditions: foliar, 24 h, 200 ppm in the applied formulation, wheat leaf segments, curative (applied 1 day after inoculation), compared to untreated control leaf disks, read-out: disease control
Summary of the method: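 Segments of wheat cv. Kanzler were laid on agar and inoculated with a spore suspension of the rust, then held in darkness at 19° C and 75% relative humidity. One day later the water-diluted formulated compound was applied, with incubation continued under a 12 h light/dark cycle.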

Phakopsora Pachyrhizi = assay: Fungicidal activity against Phakopsora pachyrhizi / soybean / leaf disc preventative (Asian soybean rust); type: in vivo; conditions: foliar, 200 ppm in the applied formulation, soybean leaf disks, compared to untreated control leaf disks, read-out: disease control
Summary of the method: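 Scored 12 to 14 days post-application as percent control relative to untreated check discs, rust spores were sprayed under the disc one day after compound treatment. Incubation: 20°C, 75% rh, first 24–36 h in darkness, then 12 h daily light; discs kept on water agar.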

CCON(Cc1ccc(-c2noc(C(F)(F)F)n2)cc1)C(=O)N(C)C [Compound 3.28, 1-ethoxy-3,3-dimethyl-1-[[4-[5-(trifluoromethyl)-1,2,4-oxadiazol-3-yl]phenyl]methyl]urea]
≥ 80%: inhibition of growth at 20 ppm [1] | pest or weed control at 200 ppm [2] | pest or weed control at 200 ppm [3] | pest or weed control at 200 ppm (Phakopsora Pachyrhizi)

CONC(=O)N(Cc1ccc(-c2noc(C(F)(F)F)n2)cc1)OC [Compound 3.22, 1,3-dimethoxy-1-[[4-[5-(trifluoromethyl)-1,2,4-oxadiazol-3-yl]phenyl]methyl]urea]
≥ 80%: inhibition of growth at 20 ppm [1] | pest or weed control at 200 ppm [2] | pest or weed control at 200 ppm [3] | pest or weed control at 200 ppm (Phakopsora Pachyrhizi)

CCN(Cc1ccc(-c2noc(C(F)(F)F)n2)cc1)C(=O)NC [Compound 3.52, 1-ethyl-3-methyl-1-[[4-[5-(trifluoromethyl)-1,2,4-oxadiazol-3-yl]phenyl]methyl]urea]
≥ 80%: inhibition of growth at 20 ppm [1] | pest or weed control at 200 ppm [2] | pest or weed control at 200 ppm [3] | pest or weed control at 200 ppm (Phakopsora Pachyrhizi)

CC(C)N(Cc1ccc(-c2noc(C(F)(F)F)n2)cc1)C(=O)C1CCC1 [Compound 1.675, N-isopropyl-N-[[4-[5-(trifluoromethyl)-1,2,4-oxadiazol-3-yl]phenyl]methyl]-cyclobutane-carboxamide]
≥ 80%: inhibition of growth at 20 ppm [1] | pest or weed control at 200 ppm [2] | pest or weed control at 200 ppm [3] | pest or weed control at 200 ppm (Phakopsora Pachyrhizi)

N#CC1(C(=O)N(Cc2ccc(-c3noc(C(F)(F)F)n3)cc2)CC2CC2)CC1 [Compound 1.244, 1-cyano-N-(cyclopropylmethyl)-N-[[4-[5-(trifluoromethyl)-1,2,4-oxadiazol-3-yl]phenyl]methyl]-cyclopropane-carboxamide]
≥ 80%: inhibition of growth at 20 ppm [1] | pest or weed control at 200 ppm [2] | pest or weed control at 200 ppm [3] | pest or weed control at 200 ppm (Phakopsora Pachyrhizi)

C=CCN(Cc1ccc(-c2noc(C(F)(F)F)n2)cc1)C(=O)C(C)C [Compound 1.483, N-allyl-2-methyl-N-[[4-[5-(trifluoromethyl)-1,2,4-oxadiazol-3-yl]phenyl]methyl]-propanamide]
≥ 80%: inhibition of growth at 20 ppm [1] | pest or weed control at 200 ppm [2] | pest or weed control at 200 ppm [3] | pest or weed control at 200 ppm (Phakopsora Pachyrhizi)

COCCCC(=O)N(CCOC)Cc1ccc(-c2noc(C(F)(F)F)n2)cc1 [Compound 1.365, 4-methoxy-N-(2-methoxyethyl)-N-[[4-[5-(trifluoromethyl)-1,2,4-oxadiazol-3-yl]phenyl]methyl]-butanamide]
≥ 80%: inhibition of growth at 20 ppm [1] | pest or weed control at 200 ppm [2] | pest or weed control at 200 ppm [3] | pest or weed control at 200 ppm (Phakopsora Pachyrhizi)

O=C(CC1CC1)ON(Cc1ccc(-c2noc(C(F)(F)F)n2)cc1)C(=O)CC1CC1 [Compound 1.775, [(2-cyclo-propylacetyl)-[[4-[5-(trifluoromethyl)-1,2,4-oxadiazol-3-yl]phenyl]methyl]-amino] 2-cyclopropylacetale]
≥ 80%: inhibition of growth at 20 ppm [1] | pest or weed control at 200 ppm [2] | pest or weed control at 200 ppm [3] | pest or weed control at 200 ppm (Phakopsora Pachyrhizi)

CCCC(=O)N(CCOC)Cc1ccc(-c2noc(C(F)(F)F)n2)cc1 [Compound 1.329, N-(2-methoxyethyl)-N-[[4-[5-(trifluoromethyl)-1,2,4-oxadiazol-3-yl]phenyl]methyl]-butanamide]
≥ 80%: inhibition of growth at 20 ppm [1] | pest or weed control at 200 ppm [2] | pest or weed control at 200 ppm [3] | pest or weed control at 200 ppm (Phakopsora Pachyrhizi)

CC1CC1C(=O)N(Cc1ccc(-c2noc(C(F)(F)F)n2)cc1)C1CC1 (centres unmarked) [Compound 1.115, N-cyclopropyl-2-methyl-N-[[4-[5-(trifluoromethyl)-1,2,4-oxadiazol-3-yl]phenyl]methyl]-cyclopropane-carboxamide]
≥ 80%: inhibition of growth at 20 ppm [1] | pest or weed control at 200 ppm [2] | pest or weed control at 200 ppm [3] | pest or weed control at 200 ppm (Phakopsora Pachyrhizi)

O=C(CCC(F)(F)F)N(Cc1ccc(-c2noc(C(F)(F)F)n2)cc1)C1CC1 [Compound 1.101, N-cyclopropyl-4,4,4-trifluoro-N-[[4-[5-(trifluoromethyl)-1,2,4-oxadiazol-3-yl]phenyl]methyl]-butanamide]
≥ 80%: inhibition of growth at 20 ppm [1] | pest or weed control at 200 ppm [2] | pest or weed control at 200 ppm [3] | pest or weed control at 200 ppm (Phakopsora Pachyrhizi)

CON(Cc1ccc(-c2noc(C(F)(F)F)n2)cc1)C(=O)C1CC1C (centres unmarked) [Compound 1.40, N-methoxy-2-methyl-N-[[4-[5-(trifluoromethyl)-1,2,4-oxadiazol-3-yl]phenyl]methyl]-cyclopropane-carboxamide]
≥ 80%: inhibition of growth at 20 ppm [1] | pest or weed control at 200 ppm [2] | pest or weed control at 200 ppm [3] | pest or weed control at 200 ppm (Phakopsora Pachyrhizi)

C=CC(=O)N(Cc1ccc(-c2noc(C(F)(F)F)n2)cc1)C(C)CC (centres unmarked) [Compound 1.387, N-sec-butyl-N-[[4-[5-(trifluoromethyl)-1,2,4-oxadiazol-3-yl]phenyl]methyl]-prop-2-enamide]
≥ 80%: inhibition of growth at 20 ppm [1] | pest or weed control at 200 ppm [2] | pest or weed control at 200 ppm [3] | pest or weed control at 200 ppm (Phakopsora Pachyrhizi)

COC(=O)ON(Cc1ccc(-c2noc(C(F)(F)F)n2)cc1)C(=O)OC [Compound 2.25, [methoxycarbonyl-[[4-[5-(trifluoromethyl)-1,2,4-oxadiazol-3-yl]phenyl]methyl]-amino]methyl carbonate]
≥ 80%: inhibition of growth at 20 ppm [1] | pest or weed control at 200 ppm [2] | pest or weed control at 200 ppm [3] | pest or weed control at 200 ppm (Phakopsora Pachyrhizi)

COCCC(=O)N(Cc1ccc(-c2noc(C(F)(F)F)n2)cc1)C1COC1 [Compound 1.741, 3-methoxy-N-(oxetan-3-yl)-N-[[4-[5-(trifluoromethyl)-1,2,4-oxadiazol-3-yl]phenyl]methyl]-propanamide]
≥ 80%: inhibition of growth at 20 ppm [1] | pest or weed control at 200 ppm [2] | pest or weed control at 200 ppm [3] | pest or weed control at 200 ppm (Phakopsora Pachyrhizi)

CCC(COC)C(=O)N(O)Cc1ccc(-c2noc(C(F)(F)F)n2)cc1 (centres unmarked) [Compound 1.768, N-hydroxy-2-(methoxymethyl)-N-[[4-[5-(trifluoromethyl)-1,2,4-oxadiazol-3-yl]phenyl]methyl]-butanamide]
≥ 80%: inhibition of growth at 20 ppm [1] | pest or weed control at 200 ppm [2] | pest or weed control at 200 ppm [3] | pest or weed control at 200 ppm (Phakopsora Pachyrhizi)

C#CCN(Cc1ccc(-c2noc(C(F)(F)F)n2)cc1)C(=O)CC1CC1 [Compound 1.167, 2-cyclopropyl-N-prop-2-ynyl-N-[[4-[5-(trifluoromethyl)-1,2,4-oxadiazol-3-yl]phenyl]methyl]-acetamide]
≥ 80%: inhibition of growth at 20 ppm [1] | pest or weed control at 200 ppm [2] | pest or weed control at 200 ppm [3] | pest or weed control at 200 ppm (Phakopsora Pachyrhizi)

CCC(=O)N(Cc1ccc(-c2noc(C(F)(F)F)n2)cc1)C(C)C [Compound 1.589, N-isopropyl-N-[[4-[5-(trifluoromethyl)-1,2,4-oxadiazol-3-yl]phenyl]methyl]-propanamide]
≥ 80%: inhibition of growth at 20 ppm [1] | pest or weed control at 200 ppm [2] | pest or weed control at 200 ppm [3] | pest or weed control at 200 ppm (Phakopsora Pachyrhizi)

COCCC(=O)N(C)Cc1ccc(-c2noc(C(F)(F)F)n2)cc1 [Compound 1.516, 3-methoxy-N-methyl-N-[[4-[5-(trifluoromethyl)-1,2,4-oxadiazol-3-yl]phenyl]methyl]-propanamide]
≥ 80%: inhibition of growth at 20 ppm [1] | pest or weed control at 200 ppm [2] | pest or weed control at 200 ppm [3] | pest or weed control at 200 ppm (Phakopsora Pachyrhizi)

CCNC(=O)N(Cc1ccc(-c2noc(C(F)(F)F)n2)cc1)C1CC1 [Compound 3.34, 1-cyclopropyl-3-ethyl-1-[[4-[5-(trifluoromethyl)-1,2,4-oxadiazol-3-yl]phenyl]methyl]urea]
≥ 80%: inhibition of growth at 20 ppm [1] | pest or weed control at 200 ppm [2] | pest or weed control at 200 ppm [3] | pest or weed control at 200 ppm (Phakopsora Pachyrhizi)
